Measurements reported in US12532889B2, “Herbicidal compositions comprising glufosinate” (BASF SE, priority 2023, dated 2026).
“And” between values parts separate entries of the source, which are not always exact repeats. Equal values may be shown once.

Tests used:
Assay in all cases: Post-emergence application in field trials (Example A)
Format in all cases: in vivo
[1] = tested on: AVEFA (Avena fatua); conditions: Table 3.1; AVEFA growth stage 22-24, height 18-29 cm; A-1 12.5, B-2 500 g ai/ha; 28 DAT; water 100 l/ha
Protocol: (§1) In the examples below, using the method of S. R. Colby (1967) “Calculating synergistic and antagonistic responses of herbicide combinations”, Weeds 15, p. 22ff., the value E, which is expected if the activity of the individual active compounds is only additive, was calculated:
(§2) [formula] • where • X=percent activity using active herbicide A at an application rate a; • Y=percent activity using active herbicide B (e.g. glufosinate) at an application rate b; • E=expected activity (in %) by A+B at application rates a+b.
(§3) If the value found experimentally is higher than the value E calculated according to Colby, a synergistic effect is present.
(§4) On field test sites, natural weed infestation or seeded weeds were treated post-emergence of the weeds.
(§5) In the field trials, the weeds were treated as indicated below.
(§6) In the following experiments, the herbicidal activity for the individual herbicidal compositions (solo and mixture applications) was assessed at the indicated days after treatment (DAT). The assessments for the damage on undesired weeds caused by the composition was carried out using a scale from 0 to 100%, compared to the untreated control plants. Here, 0 means no damage and 100 means complete destruction of the plants.

[2] = tested on: BRAPL (Brachiaria plantaginea); conditions: BRAPL growth stage 24, A-1 50, B-2 400 g ai/ha, water 200 l/ha
Protocol: as §1, §2, §3, §4, §5, §6

[3] = tested on: DIGHO (Digitaria horizontalis); conditions: Table 1.4, DIGHO growth stage 24, 14 DAT, water 200 l/ha
Protocol: as §1, §2, §3, §4, §5, §6

[4] = tested on: AVESG (Avena strigosa); conditions: Table 1.6; AVESG growth stage 11-21, height 5-10 cm; A-1 25, B-2 400 g ai/ha; 14 DAT; water 200 l/ha
Protocol: as §1, §2, §3, §4, §5, §6

[5] = tested on: LOLMU (Lolium multiflorum)
Protocol: as §1, §2, §3, §4, §5, §6

[6] = tested on: POLCO (Polygonum convolvulus); conditions: Table 3.2, A-1 12.5, B-2 500 g ai/ha, 14 DAT, water 100 l/ha
Protocol: as §1, §2, §3, §4, §5, §6

[7] = tested on: ZEAMX (Zea mays)
Protocol: as §1, §2, §3, §4, §5, §6

[8] = tested on: HORVW (Hordeum vulgare (winter barley)); conditions: B-2 400 g ai/ha, growth stage 23-29, height 20-25 cm
Protocol: as §1, §2, §3, §4, §5, §6

[9] = tested on: DIGSA (Digitaria sanguinalis); conditions: for % Herbicidal activity: B-2 400 g ai/ha, height 10-15 cm; for % herbicidal activity: Table 4.1, DIGSA height 2-8 cm, water 140 l/ha
Protocol: as §1, §2, §3, §4, §5, §6

[10] = tested on: CNDSS (Conyza sp.); conditions: Table 1.5; CNDSS growth stage 26-59, height 15-55 cm; A-1 50, B-2 600 g ai/ha; 14 DAT; water 200 l/ha
Protocol: as §1, §2, §3, §4, §5, §6

[11] = tested on: CYPES (Cyperus esculentus); conditions: 21 DAT, water 140 l/ha
Protocol: as §1, §2, §3, §4, §5, §6

[12] = tested on: ECHCG (Echinocloa crus-galli); conditions: B-2 400 g ai/ha, growth stage 23-30, height 15-20 cm
Protocol: as §1, §2, §3, §4, §5, §6

[13] = tested on: ERISS (Erigeron sp.); conditions: Table 1.8, ERISS height 30-50 cm, 14 DAT, water 200 l/ha
Protocol: as §1, §2, §3, §4, §5, §6

[14] = 7 DAT, B-2 400 g ai/ha, growth stage 22-25, height 20-25 cm

In the case of `CP(=O)(O)CCC(N)C(=O)O` (stereo not drawn) [B-2, glufosinate-ammonium], the “% herbicidal activity” value [1] is reported as 68%, the “% herbicidal activity” value ([2]; Table 1.18, 21 DAT) is reported as 18% and the “% herbicidal activity” value ([2]; Table 1.4, 14 DAT) is reported as 55%. The “% herbicidal activity” value ([3]; A-1 25, B-2 400 g ai/ha) was 30%, the “% herbicidal activity” value ([3]; A-1 50, B-2 400 g ai/ha) was 30% and the “% herbicidal activity” value [4] was 83%. The “% Herbicidal activity” value [5, 14] was 70%, the “% herbicidal activity” value [5, 14] was 50% and the “% herbicidal activity” value ([5]; 21 DAT, B-2 400 g ai/ha, growth stage 22-25, height 20-25 cm) was 30%. For the same molecule, the “% Herbicidal activity” value ([5]; 28 DAT, B-2 400 g ai/ha, growth stage 22-25, height 20-25 cm) was 40%, the “% herbicidal activity” value ([5]; Table 1.28, LOLMU growth stage 11-23, height 5-10 cm, A-1 25, B-2 400 g ai/ha, 28 DAT, water 200 l/ha) was 68% and the “% herbicidal activity” value [6] was 28%. For the same molecule, the “% herbicidal activity” value ([7]; 7 DAT, B-2 400 g ai/ha, growth stage 15-16, height 50-60 cm) was 75%, the “% Herbicidal activity” value ([7]; 21 DAT, B-2 400 g ai/ha, growth stage 15-16, height 27-33 cm) was 65% and the “% herbicidal activity” value ([7]; 21 DAT, B-2 400 g ai/ha, growth stage 15-16, height 50-60 cm) was 75%. For the same molecule, the “% herbicidal activity” value ([7]; 28 DAT, B-2 400 g ai/ha, growth stage 15-16, height 50-60 cm) was 40%, the “% herbicidal activity” value ([7]; Table 1.12, ZEAMX volunteer corn, A-1 50, B-2 400 g ai/ha, 21 DAT, water 100 l/ha) was 47% and the “% Herbicidal activity” value ([8]; 7 DAT) was 60%. For the same molecule, the “% Herbicidal activity” value ([8]; 21 DAT) was 30%, the “% herbicidal activity” value ([8]; 21 DAT) was 40% and the “% Herbicidal activity” value ([9]; 20 DAT, growth stage 21-22) was 20%. For the same molecule, the “% Herbicidal activity” value ([9]; 21 DAT, growth stage 22) was 75%, the “% Herbicidal activity” value ([9]; 41 DAT, growth stage 22) was 55% and the “% herbicidal activity” value ([9]; A-1 12.5, B-2 655 g ai/ha, 21 DAT) was 49%. The “% herbicidal activity” value ([9]; A-1 25, B-2 655 g ai/ha, 21 DAT) was 49%, the “% herbicidal activity” value ([9]; A-1 50, B-2 655 g ai/ha, 21 DAT) was 49% and the “% herbicidal activity” value [10] was 90%. For the same molecule, the “% herbicidal activity” value ([11]; Table 4.2, A-1 25, B-2 655 g ai/ha) was 18%, the “% herbicidal activity” value ([11]; Table 4.2, A-1 50, B-2 655 g ai/ha) was 18% and the “% Herbicidal activity” value ([12]; 7 DAT) was 60%. For the same molecule, the “% herbicidal activity” value ([12]; 7 DAT) was 40% and 60%, the “% Herbicidal activity” value ([12]; 21 DAT) was 60% and the “% herbicidal activity” value ([12]; 21 DAT) was 60%. The “% Herbicidal activity” value ([12]; 28 DAT) was 60%, the “% herbicidal activity” value ([13]; A-1 25, B-2 400 g ai/ha) was 40% and the “% herbicidal activity” value ([13]; A-1 50, B-2 400 g ai/ha) was 40%.
